# Measurements: patent US7670991B2, “Substituted benzoylcyclohexenones and their use as herbicidal agents” (Bayer CropScience AG, priority 2001, dated 2010)
# Legend:
# [1] = log P by reversed-phase HPLC (C 18), acidic range; format: physicochemical; details: for logP: marked a): acidic range
# Method: Temperature: 43° C. (a) Mobile phases for the determination in the acidic range: 0.1% aqueous phosphoric acid, acetonitrile; linear gradient from 10% acetonitrile to 90% acetonitrile—the corresponding measurement results are marked ^a) in Table 1.
# weeds [2] = experiment: Pre-emergence test, activity against weeds; format: in vivo; details: soil sprayed 24 hours after sowing, rated after three weeks
# Text: (§1) Solvent: 5 parts by weight of acetone
# Seeds of the test plants are sown in normal soil.
# crop plants = details: post-emergence, rated after three weeks
# Text: Emulsifier: 1 part by weight of alkylaryl polyglycol ether
# After three weeks, the degree of damage to the plants is rated in % damage in comparison to the development of the untreated control.
# rice = experiment: Trial in sown rice (greenhouse), tolerance by rice; format: in vivo; details: foliar treatment at 1.5-2-leaf stage of rice, flooded, rated 4 weeks after application
# Text: as §1
# Plant vessels (dimensions: 20 cm×20 cm×9 cm; surface: 1/200 ar) are filled with soil from a rice field. Seeds of rice and weeds are sown into the soil, which is kept moist.
# The test batches are then kept flooded (water depth 3 cm).
# weeds [3] = experiment: Trial in sown rice (greenhouse), activity against weeds; format: in vivo; details: foliar treatment at 1.5-2-leaf stage of rice, flooded, rated 4 weeks after application
# Text: as §1
# Plant vessels (dimensions: 20 cm×20 cm×9 cm; surface: 1/200 ar) are filled with soil from a rice field. Seeds of rice and weeds are sown into the soil, which is kept moist. At the 1.5-2-leaf stage of rice, the dilute preparation of active compound is applied as a spray (foliar treatment).
# One day after the treatment, the test vessels are flooded to a water depth of 3 cm. The test batches are then kept flooded (water depth 3 cm).
# [4] = tested on: broad-leaved weeds and weed grasses; experiment: Post-emergence test, activity against weeds; format: in vivo; details: test plants 5-15 cm sprayed, rated after three weeks
# Text: as §1
# [5] = 0.1% aqueous phosphoric acid/acetonitrile gradient, HPLC C 18, 43° C.
SMILES,"logP [1, 5]",activity against weeds (weeds [2]),further results
CCN1CCN(C(=O)Nc2c(Cl)ccc(C(=O)C3=C(O)CCCC3=O)c2Cl)C1=O [Example 1-2],(I-2) logP = 2.33^a),strong activity,
"CN1CCN(C(=O)Nc2c(Cl)ccc(C(=O)C3C(=O)CCCC3=O)c2Cl)C1=O [Example 1-1, N-[2,6-dichloro-3-[(2,6-dioxo-cyclohexyl)-carbonyl]-phenyl]-3-methyl-2-oxo-1-imidazolidinecarboxamide]",,strong activity,"tolerated by crop plants (crop plants): tolerated well; tolerated by rice (rice): tolerated well; activity against weeds (weeds [3]): strong activity; activity against broad-leaved weeds and weed grasses [4]: strong activity; chromatographic logP ([1]; reversed-phase HPLC column (C 18), pH=2.3): 2.07"
COC(=O)c1ccc(Cl)c(NC(=O)N2CCCN(CC(C)C)C2=O)c1Cl [IIIa-21],logP = 3.43^a),,
COC(=O)c1ccc(Cl)c(NC(=O)N2CCN(C)CC2)c1Cl [IIIa-8],logP = 0.50^a),,
COc1cc(NC(=O)N2CCN(C)C2=O)ccc1C(=O)C1=C(O)CCCC1=O [Example 1-110],(I-3) logP = 1.93^a),,
COCCN(CCOC)C(=O)Nc1c(Cl)ccc(C(=O)C2=C(O)CCCC2=O)c1Cl [Example 1-134],(I-2) logP = 2.40^a),,
CCCN(CCC)C(=O)Nc1c(Cl)ccc(C(=O)C2=C(O)CCCC2=O)c1Cl [Example 1-109],(I-2) logP = 2.95^a),,
CN1CCCN(C(=O)Nc2c(Cl)ccc(C(=O)C3=C(O)CCCC3=O)c2Cl)C1=O [Example 1-4],(I-2) logP = 2.33^a),strong activity,
CC1CC(=O)C(C(=O)c2ccc(Cl)c(NC(=O)N3CCCO3)c2Cl)=C(O)C1 (racemic) [Example 3-61],,,"logP ([1]; 0.1% aqueous phosphoric acid, acetonitrile, HPLC reversed-phase column (C 18), 43° C.): (I-2) logP = 2.25^a)"
COC(=O)c1ccc(Cl)c(NC(=O)N2CCOCC2)c1Cl [IIIa-6],logP = 1.34^a),,

# Continued, in another order:
"logP [1, 5]",SMILES,activity against weeds (weeds [2]),further results
(I-2) logP = 1.81^a),CN(C)NC(=O)Nc1c(Cl)ccc(C(=O)C2=C(O)CCCC2=O)c1Cl [Example 1-6],strong activity,
(I-2) logP = 1.60^a),O=C1CCCC(O)=C1C(=O)c1ccc(Cl)c(NC(=O)N2CCOCC2)c1Cl [Example 1-5],strong activity,
(I-2) logP = 1.97^a),CON(C)C(=O)Nc1c(Cl)ccc(C(=O)C2=C(O)CCCC2=O)c1Cl [Example 1-3],strong activity,
(I-2) logP = 1.72^a),COCCCNC(=O)Nc1c(Cl)ccc(C(=O)C2=C(O)CCCC2=O)c1Cl [Example 1-172],,
(I-2) logP = 2.22^a),CCCN(C)C(=O)Nc1c(Cl)ccc(C(=O)C2=C(O)CCCC2=O)c1Cl [Example 1-173],,
(I-2) logP = 2.78^a),O=C(Nc1nnc(C(F)(F)F)s1)Nc1c(Cl)ccc(C(=O)C2=C(O)CCCC2=O)c1Cl [Example 1-40],,
